Consider two molecules from patent US8334277B2, “{4-[2-(dimethylamino)-1-(1-hydroxycyclohexyl)ethyl]phenoxy}phosphate or a pharmaceutically acceptable salt thereof, a production method therefor and a pharmaceutical composition for preventing and treating central nervous system disorders containing the same as an active component” (JE IL Pharmaceutical Co., Ltd., priority 2008, dated 2012).

A short description of data set [1]: Measurement of solubility in water (HPLC, saturated solution). Format: physicochemical. The protocol: Experiment was conducted to measure water solubility of ODV phosphate compound of the present invention.
40, 50 and 60 mg of ODV phosphate composition prepared by the embodiment was mixed in 100 mL of water to form 0.4, 0.5 and 0.6 mg/mL concentration of ODV phosphate solution respectively. The above ODV phosphate solution and internal standard substance were analyzed with HPLC to measure ODV phosphate according to the concentration of ODV phosphate and peak area ratio of internal standard substance, and a calibration curve was set. The HPLC analysis was done many times to measure the average value of the calibration curve.
An excessive amount of ODV phosphate compound (approximately 400 mg) prepared by the embodiment was dissolved in 2 mL of water and filtered to form a saturated solution. 1 mL of the above saturated solution was diluted with water to prepare 20 mL of solution. The diluting process was repeated many times to form saturated solution with 800 times of dilution rate. This solution and internal standard substance were analyzed with HPLC to measure ODV phosphate and peak area ratio of internal standard. The measured value was substituted in calibration curve to calculate the concentration, and multiply the dilution rate to measure solubility.

The test system of another data set is ICR mice. In words: Acute toxicity experiment, intraperitoneal injection, number of dead mice over 7 days. Format: in vivo. Conditions: for The number of death mice: Day 1, 8 mice. The protocol:
Experiment was conducted to measure acute toxicity of ODV phosphate compound according to an embodiment of the present invention.
7-week-old ICR mice, weighing 25˜35 g each, were used in the experiment (SPF, production firm: coretech).

Data set [2] is described as follows: Pharmacokinetics experiment, oral administration, blood concentration by LC/MS/MS. In kind it is in vivo, SD rats. The following applies: 120 mg/kg oral. The protocol: 9-week-old female […], SD rats, weighing 320±20 g each, were used in the experiment (SPF, production firm: coretech). ODV phosphate compound prepared by the embodiment was dissolved in solvent (100% distilled water) and 120 mg/kg of the same was orally administered to 3 mice. After 0.08, 0.25, 0.5, 1, 2, 3, 4, 6 hours of administration, blood was taken from mice, and separated by centrifuge. The concentration of the separated blood was measured with LC/MS/MS. As a comparative example, ODV succinate hydrate was measured in the same manner explained above.
Cmax is the highest concentration level of blood in body, Tmax is the time to reach the highest concentration level of blood, AUC0-t is square between blood concentration to time and time, AUC0-inf is square between blood concentration and time, and t1/2 is half-life of compound in body, and MRTinf is remaining period of compound in body.

Turning to `CN(C)CC(c1ccc(OP(=O)(O)O)cc1)C1(O)CCCCC1` (stereo not shown) [ODV phosphate, {4-[2-(dimethylamino)-1-(1-hydroxycyclohexyl)ethyl]phenoxy}phosphate], in data set [1] (313.4 vs […]), the “water solubility, times higher than ODV succinate” value came out at 4 times. In data set [1] (thermodynamic from solid), this molecule returned a solubility of 313 mg/mL. Also, the “dead mice over the whole observation” value in the data set on ICR mice (450 mg/kg i.p., for 7 days, 8 mice) is “no mice were dead”. Also, in data set [2], the “AUC0-inf compared with ODV succinate hydrate” value is listed as “noticeably higher” and the “Cmax compared with ODV succinate hydrate” value was “noticeably higher”.

As for `CN(C)CC(c1ccc(O)cc1)C1(O)CCCCC1.O=C(O)CCC(=O)O` (stereo not shown) [ODV succinate], the “The number of death mice” value in the data set with ICR mice (350 mg/kg i.p.) was determined as 2. Further, in the data set on ICR mice (450 mg/kg i.p.), the “The number of death mice” value was found to be 8. In data set [2] (blood), the AUC0-inf is 9268.8 ng·h/mL, the peak concentration (Cmax) came to 2786.7 ng/mL, the MRTinf was 5.7 h and the time of peak concentration (Tmax) worked out at 0.5 h. Moreover, the t1/2 in data set [2] (blood) came out at 5.0 h. For the same molecule, in data set [2] (blood, sampling to 6 hours), the AUC0-t was 7017.4 ng·h/mL.
